Where “and” joins values, the source holds several entries; their conditions need not be identical. Equal entries are not always repeated. Inconclusive results and toxic doses are left out. The calls were made as follows: active = survival T/C of 150% or more; inactive = T/C below 125% in these data.
Tested on: P388 leukemia ip, CD2F1 mice, survival T/C
Experiment: NCI In Vivo Anticancer Drug Screen. Data for tumor model P388 Leukemia (intraperitoneal) in CD2F1 (CDF1) mice
Details: endpoint: median survival time, higher = longer survival
Outline: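 Mice carrying the transplanted tumor received test compound or vehicle. Survival was recorded in each group, and the value is the treated-group measurement divided by that of the vehicle-treated control group.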

[1] = dose: 15.0 mg/kg/injection, schedule: Q01DX005 (ip), vehicle: saline with Tween-80
[2] = dose: 30.0 mg/kg/injection, schedule: Q01DX005 (ip), vehicle: saline with Tween-80
[3] = dose: 60.0 mg/kg/injection, schedule: Q01DX005 (ip), vehicle: saline with Tween-80
[4] = dose: 100.0 mg/kg/injection, schedule: Q01DX001 (ip), vehicle: saline with Tween-80
[5] = dose: 200.0 mg/kg/injection, schedule: Q01DX001 (ip), vehicle: saline with Tween-80
[6] = dose: 400.0 mg/kg/injection, schedule: Q01DX001 (ip), vehicle: saline with Tween-80
[7] = dose: 50.0 mg/kg/injection, schedule: Q01DX009 (ip), vehicle: saline
[8] = dose: 100.0 mg/kg/injection, schedule: Q01DX009 (ip), vehicle: saline
[9] = dose: 200.0 mg/kg/injection, schedule: Q01DX009 (ip), vehicle: saline
[10] = dose: 50.0 mg/kg/injection, schedule: Q01DX009 (ip), vehicle: saline with Tween-80
[11] = dose: 100.0 mg/kg/injection, schedule: Q01DX009 (ip), vehicle: saline with Tween-80
[12] = dose: 200.0 mg/kg/injection, schedule: Q01DX009 (ip), vehicle: saline with Tween-80
[13] = dose: 120.0 mg/kg/injection, schedule: Q01DX005 (ip), vehicle: saline with Tween-80
[14] = dose: 240.0 mg/kg/injection, schedule: Q01DX005 (ip), vehicle: saline with Tween-80
[15] = dose: 12.5 mg/kg/injection, schedule: Q01DX009 (ip), vehicle: Klucel (hydroxypropylcellulose) (HPC)
[16] = dose: 25.0 mg/kg/injection, schedule: Q01DX009 (ip), vehicle: Klucel (hydroxypropylcellulose) (HPC)
[17] = dose: 50.0 mg/kg/injection, schedule: Q01DX009 (ip), vehicle: Klucel (hydroxypropylcellulose) (HPC)
[18] = dose: 100.0 mg/kg/injection, schedule: Q01DX009 (ip), vehicle: Klucel (hydroxypropylcellulose) (HPC)

Measured: T/C

COc1ccc(N=N/N=c2\sc3cc(Cl)ccc3n2C)cc1
inactive: dose: 7.5 mg/kg/injection, schedule: Q01DX005 (ip), vehicle: saline with Tween-80 115 % of control | [1] 113 % of control and 121 % of control | [2] 115 % of control and 124 % of control | [3] 112 % of control

CN(C)[C@@H]1C(=O)C(C(=O)NCNc2nc3n[nH]nc3c(=O)[nH]2)=C(O)[C@@]2(O)C(=O)C3=C(O)c4c(O)cccc4[C@@](C)(O)[C@H]3C[C@@H]12
inactive: dose: 50.0 mg/kg/injection, schedule: Q04DX003 (ip), vehicle: saline 102 % of control | dose: 100.0 mg/kg/injection, schedule: Q04DX003 (ip), vehicle: saline 100 % of control | dose: 200.0 mg/kg/injection, schedule: Q04DX003 (ip), vehicle: saline 107 % of control | dose: 400.0 mg/kg/injection, schedule: Q04DX003 (ip), vehicle: saline 111 % of control

O=C(O)Cn1/c(=N\N=C\c2ccc([N+](=O)[O-])cc2)sc2ccccc21
inactive: [4] 91 % of control | [5] 89 % of control | [6] 99 % of control

NC(CSCCNc1ccc([N+](=O)[O-])cc1[N+](=O)[O-])C(=O)O (stereo unspecified)
inactive: dose: 25.0 mg/kg/injection, schedule: Q04DX003 (ip), vehicle: Klucel (hydroxypropylcellulose) (HPC) 99 % of control | dose: 50.0 mg/kg/injection, schedule: Q04DX003 (ip), vehicle: Klucel (hydroxypropylcellulose) (HPC) 100 % of control | dose: 100.0 mg/kg/injection, schedule: Q04DX003 (ip), vehicle: Klucel (hydroxypropylcellulose) (HPC) 89 % of control | dose: 200.0 mg/kg/injection, schedule: Q04DX003 (ip), vehicle: Klucel (hydroxypropylcellulose) (HPC) 99 % of control

O/N=C/c1cc[n+](CCC[n+]2ccc(/C=N/O)cc2)cc1
inactive: dose: 5.0 mg/kg/injection, schedule: Q01DX009 (ip), vehicle: saline 100 % of control | dose: 10.0 mg/kg/injection, schedule: Q01DX009 (ip), vehicle: saline 90 % of control | dose: 20.0 mg/kg/injection, schedule: Q01DX009 (ip), vehicle: saline 100 % of control

Cc1ccc(S(=O)(=O)C(Sc2ccccc2)=S=NC23CC4CC(CC(C4)C2)C3)cc1
inactive: [7] 100 % of control | [8] 108 % of control | [9] 97 % of control

O=C(Nc1cccc(Cl)c1)Nc1ccc[nH]c1=O
inactive: [10] 101 % of control | [11] 109 % of control | [12] 109 % of control

CCCC(NC(N)=O)C(CCC)NC(N)=O (stereo unspecified)
inactive: [10] 102 % of control

c1ccc(N2N=NC3CCOC32)cc1 (stereo unspecified)
inactive: dose: 50.0 mg/kg/injection, schedule: Q01DX005 (ip), vehicle: saline with Tween-80 94 % of control | dose: 100.0 mg/kg/injection, schedule: Q01DX005 (ip), vehicle: saline with Tween-80 102 % of control | dose: 200.0 mg/kg/injection, schedule: Q01DX005 (ip), vehicle: saline with Tween-80 106 % of control

COC(=O)c1nn(-c2ccccc2)c(C(=O)OC)c1C(=O)OC
inactive: [4] 111 % of control | [5] 112 % of control | [6] 98 % of control

COC1=CC=C2Nc3nc(N)[nH]c(=O)c3SC2N1 (stereo unspecified)
inactive: [3] 99 % of control | [13] 90 % of control | [14] 97 % of control

ClCCn1c(CCl)nc2ccc(Cl)cc21
inactive: dose: 3.12 mg/kg/injection, schedule: Q01DX009 (ip), vehicle: Klucel (hydroxypropylcellulose) (HPC) 93 % of control | dose: 6.25 mg/kg/injection, schedule: Q01DX009 (ip), vehicle: Klucel (hydroxypropylcellulose) (HPC) 101 % of control | [15] 100 % of control | [16] 100 % of control

CC1CN1CCS(=O)(=O)CCN1CC1C (stereo unspecified)
inactive: [10] 95 % of control | [11] 104 % of control

CCSc1ncnc2c1ncn2C1OC(CO)C(O)C1O (stereo unspecified)
inactive: dose: 100.0 mg/kg/injection, schedule: Q04DX003 (ip), vehicle: saline with Tween-80 104 % of control | dose: 200.0 mg/kg/injection, schedule: Q04DX003 (ip), vehicle: saline with Tween-80 109 % of control

COC(=O)Nc1nc2ccc(Br)cc2[nH]1
inactive: dose: 200.0 mg/kg/injection, schedule: Q04DX003 (oral), vehicle: saline with Tween-80 115 % of control | dose: 400.0 mg/kg/injection, schedule: Q04DX003 (oral), vehicle: saline with Tween-80 107 % of control | dose: 800.0 mg/kg/injection, schedule: Q04DX003 (oral), vehicle: saline with Tween-80 104 % of control | dose: 1600.0 mg/kg/injection, schedule: Q04DX003 (oral), vehicle: saline with Tween-80 120 % of control

CC(=O)OCC1=COC(OC(=O)CC(C)(C)OC(C)=O)C2C1=CC(OC(=O)CC(C)C)[C@@]21CO1 (stereo partly specified)
inactive: dose: 10.0 mg/kg/injection, schedule: Q01DX005 (ip), vehicle: saline 97 % of control | dose: 20.0 mg/kg/injection, schedule: Q01DX005 (ip), vehicle: saline 93 % of control | dose: 40.0 mg/kg/injection, schedule: Q01DX005 (ip), vehicle: saline 99 % of control

CC1CCN(SSc2nc3ccccc3s2)CC1
inactive: [10] 104 % of control and 116 % of control | [11] 107 % of control and 112 % of control | [12] 110 % of control and 118 % of control | dose: 400.0 mg/kg/injection, schedule: Q01DX009 (ip), vehicle: saline with Tween-80 114 % of control

C/C(=N/N=C(N)N)c1cnn(C(=N)N)c1C
inactive: dose: 60.0 mg/kg/injection, schedule: Q01DX005 (ip), vehicle: Klucel (hydroxypropylcellulose) (HPC) 99 % of control | dose: 120.0 mg/kg/injection, schedule: Q01DX005 (ip), vehicle: Klucel (hydroxypropylcellulose) (HPC) 114 % of control

Cn1c2c(c3ccccc3c1=O)C(=O)c1cccnc1-2
inactive: dose: 50.0 mg/kg/injection, schedule: Q01DX005 (ip), vehicle: saline 102 % of control | dose: 100.0 mg/kg/injection, schedule: Q01DX005 (ip), vehicle: saline 97 % of control | dose: 200.0 mg/kg/injection, schedule: Q01DX005 (ip), vehicle: saline 105 % of control

CCO/C=C1/N=C(c2cc(OC)cc(OC)c2)OC1=O
inactive: [1] 104 % of control | [2] 101 % of control | [3] 90 % of control and 96 % of control | [14] 87 % of control

C[N+](C)(C)CCC(=O)c1ccccc1
inactive: [15] 99 % of control | [16] 96 % of control

CSC(/C=C1\C=CN(Cc2ccccc2)c2ccccc21)=N\S(=O)(=O)c1ccc(C)cc1
inactive: dose: 25.0 mg/kg/injection, schedule: Q04DX002 (ip), vehicle: saline with Tween-80 102 % of control | dose: 50.0 mg/kg/injection, schedule: Q04DX002 (ip), vehicle: saline with Tween-80 97 % of control | dose: 100.0 mg/kg/injection, schedule: Q04DX002 (ip), vehicle: saline with Tween-80 97 % of control

CC1(C)OC2OC(C3COS(=O)O3)C(Cl)C2O1 (stereo unspecified)
inactive: [3] 107 % of control | [13] 113 % of control | [14] 114 % of control

Cc1c2c(cc3c1[nH]c1ccccc13)C(c1ccc(Cl)cc1)=NCC2
inactive: [15] 99 % of control | [16] 101 % of control | [17] 96 % of control | [18] 96 % of control

CCOc1ccc(-n2cnc3c(=O)[nH]c(N)nc32)cc1
inactive: [1] 90 % of control | [2] 91 % of control | [3] 86 % of control and 90 % of control | [14] 102 % of control

CNc1ncnc2ccc(Cl)cc12
inactive: [17] 93 % of control | [18] 102 % of control

COC(=O)c1ccc(SCC2=Nc3c(nc(N)[nH]c3=O)NCC2)cc1
inactive: dose: 12.5 mg/kg/injection, schedule: Q01DX009 (ip), vehicle: distilled water + Tween-80 99 % of control | dose: 25.0 mg/kg/injection, schedule: Q01DX009 (ip), vehicle: distilled water + Tween-80 93 % of control | dose: 50.0 mg/kg/injection, schedule: Q01DX009 (ip), vehicle: distilled water + Tween-80 90 % of control | dose: 100.0 mg/kg/injection, schedule: Q01DX009 (ip), vehicle: distilled water + Tween-80 90 % of control

COc1ccc(CSC(=S)Nc2ccc(N=Nc3ccccc3)cc2)cc1
inactive: [7] 107 % of control | [8] 104 % of control | [9] 119 % of control

CS(=O)(=O)OCC1NC(=O)C(COS(C)(=O)=O)NC1=O (stereo unspecified)
inactive: dose: 50.0 mg/kg/injection, schedule: Q01DX009 (ip), vehicle: other 106 % of control and 103 % of control | dose: 100.0 mg/kg/injection, schedule: Q01DX009 (ip), vehicle: other 98 % of control and 103 % of control | dose: 200.0 mg/kg/injection, schedule: Q01DX009 (ip), vehicle: other 107 % of control | dose: 400.0 mg/kg/injection, schedule: Q01DX009 (ip), vehicle: other 103 % of control

Source: PubChem BioAssay AID330 (DTP/NCI, 2004)
